According to US20190389843A1, “PYRROLE mTORC INHIBITORS AND USES THEREOF” (Navitor Pharmaceuticals, Inc., priority 2016, published 2019):

Tests used:
Assay type in all cases: cell-based
[1] = system: Glucose uptake in MCF-7 cells; assay: Radioactive glucose uptake in MCF-7 cells; conditions: Homo sapiens, MCF7, 3H-2DG uptake, 20 mins
Protocol: Example 157: Radioactive Glucose Uptake in MCF-7 Cells
Assay Protocol • 1. Seed approximately 12,000 MCF-7 cells cultured without insulin per well in 96-well plates (BIOCOAT, #356690) and let the cells sit in hood for 30 min. (Cell culture medium: DMEM+10% FBS). • 2. Put the cell culture plates in TC incubator (5% CO2, 37° C.) and incubate overnight. • 3. Take out the cell plates and wash with prewarmed KRH buffer (37° C.) three times using BioTek plate washer. (KRH buffer preparation: 136 mM NaCl, 4.7 mM KCl, 1.25 mM MgCl2, 1.2 mM CaCl2, 20 mM HEPES, 0.1 mg/ml sodium pyruvate, 0.1% BSA, pH 7.4). • 4. Compound preparation and treatment: • a) Add 12 ul compound stock in 100% DMSO to the first column of Echo LDV plate • b) Serially dilute the compound solution in 100% DMSO (4 uL+8 uL DMSO) using Bravo for 9 doses • c) Dispense 350 nL compounds using Echo to the working plate • d) i) Without compound preincubation condition, dispense 116 uL KRH buffer containing tritiated 2-deoxy-D-glucose (3H-2DG) and 2-deoxy-D-glucose (2DG) to the working plate and mix. • ii. With compound preincubation condition, dispense 110 uL KRH buffer only to the working plates and mix • e) Keep the compound working plate at 37° C. incubator until use • 5. Discard the KRH buffer (cells were kept in KRH buffer for 10-15 min before 2-DG addition) and transfer 100 uL compound working solution out to the cell culture plate using Bravo. Incubate for 20 mins at 37° C. (2DG final at 0.2 mM, 3H-2DG at 10 uCi/mL). • 6. Add prewarmed 50 uL KRH buffer (37° C.) containing 60 mM cold 2DG to the wells to stop the 2DG uptake using Multidrop combi • 7. Wash the cells with prewarmed PBS three times using BioTek plate washer • 8. Add 50 uL lysis buffer (0.1 M NaOH) into the assay plate to lyse the cells using Bravo and shake at 800 rpm for 30 min. • 9. Mix and transfer 20 uL lysate to a new white plate (Corning, #3610) and add 200 uL MicroScint-20 using Bravo • 10. Shake the plate at 1000 rpm for 30 min and count in a MicroBeta plate reader.

[2] = system: pAKT in MCF7 (measure of mTORC2 activity); assay: AlphaLISA Ultra pAKT assay; conditions: Homo sapiens, MCF7, 2 h, MCF-7 cells, 2 hours compound incubation
How it was run: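 MCF7 cells, 16,000-20,000 per well, treated with compound for 2 h at 0.5% final DMSO, then lysed. Phospho-AKT, as a readout of mTORC2 activity, measured by AlphaLISA Ultra with acceptor beads and then donor beads, 2 h each.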

[3] = system: pS6K1 in MCF7 (measure of mTORC1 activity); assay: AlphaLISA Ultra pS6K1 assay; conditions: Homo sapiens, MCF7, 2 h, MCF-7 cells, 2 hours compound incubation
How it was run: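 MCF7 cells, refreshed medium 2 h, treated with compound 2 h at 0.5% DMSO final, then lysed. Phospho-S6K1 in lysates detected by AlphaLISA Ultra (acceptor beads 2 h, donor beads 2 h), read as Alpha signal on a multimode reader.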

For Cc1c(CN2CCN(c3ccccc3C#N)CC2)cc(C(=O)N2CCN(c3ccc(F)cn3)CC2)n1C [Example I-63], the IC50 [1] was 10 to 1000 nM, the IC50 [2] was over 0.3 µM and the IC50 [3] was 10 to 1000 nM.
Molecule Cc1c(CN2CCN(c3ccccc3Cl)CC2)cc(C(=O)N2CCN(c3ccc(F)cn3)CC2)n1C [Example I-72] has an IC50 [1] of 10 to 1000 nM, an IC50 [2] of over 0.3 µM and an IC50 [3] of 10 to 1000 nM.
Cc1c(CN2CCN(c3ccccc3Cl)CC2)cc(C(=O)N2CCn3c(cc4ccccc43)C2)n1C [Example I-76, (4-((4-(2-chlorophenyl)piperazin-1-yl)methyl)-1,5-dimethyl-1H-pyrrol-2-yl)(3,4-dihydropyrazino[1,2-a]indol-2(1H)-yl)methanone] gave an IC50 [1] of over 3000 nM, an IC50 [2] of over 5 µM and an IC50 [3] of 1000 to 3000 nM.
Molecule O=C(c1cc(CN2CCN(c3ccccc3Cl)CC2)cn1CCCOC1CCCCO1)N1CCN(c2ccccc2)CC1 (stereo not drawn) [Example I-147] has an IC50 [2] of over 10 µM and an IC50 [3] of 3000 to 10000 nM.
CC(=O)OCCn1cc(CN2CCN(c3ccccc3Cl)CC2)cc1C(=O)N1CCN(c2ccccc2)CC1 [Example I-148] was tested, and the IC50 [2] was over 10 µM and the IC50 [3] was 1000 to 3000 nM.
Work on COCCn1cc(CN2CCN(c3ccccc3)CC2)cc1C(=O)N1CCN(c2ccccc2C#N)CC1 [Example I-149] yielded an IC50 [2] of over 10 µM and an IC50 [3] of 3000 to 10000 nM.
Work on COCCn1cc(CN2CCN(c3ccccc3C#N)CC2)cc1C(=O)N1CCN(c2ccccc2OC)CC1 [Example I-150] yielded an IC50 [2] of over 10 µM and an IC50 [3] of 3000 to 10000 nM.
With COCCn1cc(CN2CCN(c3ccccc3C#N)CC2)cc1C(=O)N1CCN(c2ccccc2C#N)CC1 [Example I-151] the IC50 [2] was over 10 µM and the IC50 [3] was 1000 to 3000 nM.
Work on COCCn1cc(CN2CCN(c3ccccc3Cl)CC2)cc1C(=O)N1CCN(c2ccccc2)CC1 [Example I-152] yielded an IC50 [2] of over 10 µM and an IC50 [3] of 1000 to 3000 nM.
